“Also recorded” adds a separate entry of the source. Where two headings read alike, the source gives them in different places.
What was measured:
ACP-02 cells = assay: Growth inhibition assay (resazurin); assay type: cell-based, human; details: 2D culture, 72 h, value (± SD)
ACP-03 cells = assay: Growth inhibition assay (resazurin); assay type: cell-based, human; details: 2D culture, 72 h, value (± SD)
AGP-01 cells [1] = assay: Growth inhibition assay (resazurin); details: 2D culture, 72 h, value (± SD)
GC patients = details: cited from earlier work; for beneficial effects in clinical trials: NCT00215995, NCT00595985, NCT00725712
[2] = tested on: GC cell lines (AGP-01, ACP-02, ACP-03); assay: Growth inhibition assay, all GC cell lines; assay type: cell-based, human
Method: All cell lines were cultured in Dulbecco’s Modified Eagle Medium, high Glucose (4.5 g/L), with Sodium Pyruvate and L-glutamin] (DMEM, Lonza, UK), containing 10% foetal bovine serum (FBS) (Invitrogen, USA), 1% antibiotic with 100 IU/ml Penicillin and 100 ug/ml Streptomycin (Invitrogen, USA). The culture medium was changed 2 to 3 times a week and cells were passaged using trypsin/EDTA (Invitrogen, USA).
Resarzurin was used for growth inhibition assays. Briefly, cells (300/well) were plated in 384-well flat-bottomed plates and cultured for 24 h. […] All the following in vitro experiments were performed on metastatic AGP-01 cells.

kinase targets = details: cited from earlier work
kinases = details: beside BCR-ABL and SRC; cited from earlier work
AGP-01 cells [3] = assay: Microfilament analysis (cortical actin, confocal); assay type: cell-based, human
Method: Between each step described above, cells were washed three times with PBS for 5 min at 37°C. […] Images were capture by a laser confocal microscope at 40× (Zeiss, Germany). Image analysis of actin fibers was performed using Acapella (Perkin Elmer). Nuclei were automatically segmented using DAPI channel. Cells were segmented using both DAPI and Actin channels. Dense actin was defined by thresholding to find pixels that were much brighter than their surrounding in the membrane region. The area of dense actin in the membrane region was calculated and normalized to the cell area. Similarly the actin intensity in the membrane region was measured and normalized to the cell area.

AGP-01 cells [4] = assay: Morphological analysis; assay type: cell-based, human; details: 100 nM, 500 nM, 1 μM, 24 h
[5] = tested on: peritoneal metastasis of GC; details: xenograft mouse model; oral and intraperitoneal administration; cited from earlier work
AGP-01 cells [6] = assay: Cell invasion assay (ECM coated inserts); assay type: cell-based, human; details: 100 nM, 500 nM, 1 μM, 24 h, legend 8 h
Method: Cell migration assays were performed using an IncuCyte® life-cell analysis system (Essen Bioscience, USA). […] Images were captured every 2 h for 48 h and evaluated using the InCucyte® software where the wound width was calculated and expressed as percent relative to the control (0.1% DMSO). Cell invasion was assessed by using the cell invasion assay. A 24-well tissue culture plate (Corning) with cell culture inserts which contained an 8 μm pore size polycarbonate membrane was used. […] After 8 h incubation, cells were removed from the inner surface of the insert using a cotton-tipped swab. […] The number of migrating cells per insert was captured by the Operetta System (Perkin Elmer) and counted automatically.

Question: What does the source list for Cc1ccc(Nc2nccc(N(C)c3ccc4c(C)n(C)nc4c3)n2)cc1S(N)(=O)=O [Pazopanib]?
Answer: IC50 (ACP-02 cells; Homo sapiens): > 20 µM; IC50 (ACP-03 cells; Homo sapiens): > 20 µM; IC50 (AGP-01 cells [1]): > 20 µM

Question: For CS(=O)(=O)CCNCc1ccc(-c2ccc3ncnc(Nc4ccc(OCc5cccc(F)c5)c(Cl)c4)c3c2)o1 [lapatinib], which “beneficial effects in clinical trials” value (GC patients) is on record?
Answer: The value was “failed to show beneficial effects”.

Question: For Cc1cn(-c2cc(NC(=O)c3ccc(C)c(Nc4nccc(-c5cccnc5)n4)c3)cc(C(F)(F)F)c2)cn1 [nilotinib], which antiproliferative effect ([2]; GC cell lines, 72 h incubation) is on record?
Answer: The antiproliferative effect was “no proliferation inhibition was observed”.

Question: Which IC50 (ACP-02 cells; Homo sapiens) does the source give for CO[C@H]1C[C@@H]2CC[C@@H](C)[C@@](O)(O2)C(=O)C(=O)N2CCCC[C@H]2C(=O)O[C@H]([C@H](C)C[C@@H]2CC[C@@H](OCCO)[C@H](OC)C2)CC(=O)[C@H](C)/C=C(\C)[C@@H](O)[C@@H](OC)C(=O)[C@H](C)C[C@H](C)/C=C/C=C/C=C/1C [Everolimus] here?
Answer: Its IC50 is greater than 20 µM.

Question: And the IC50 (ACP-03 cells; Homo sapiens)?
Answer: Its IC50 is greater than 20 µM.

Question: What about the IC50 (AGP-01 cells [1]) of the same compound?
Answer: Its IC50 is greater than 20 µM.

Question: With COc1cc2c(Oc3ccc(NC(=O)C4(C(=O)Nc5ccc(F)cc5)CC4)cc3F)ccnc2cc1OCCCN1CCOCC1 [GSK1363089] as the compound, how does the “beneficial effects in clinical trials” value (GC patients) read?
Answer: Its value is “failed to show beneficial effects”.

Question: With N#CC1(c2ccc(NC(=O)c3cccnc3NCc3ccncc3)cc2)CCCC1 [apatinib] as the compound, how does the “median OS and progression free survival” value (GC patients; third line therapy for GC) read?
Answer: The value was “significant benefit”.

Question: With Cc1ccc(NC(=O)c2ccc(CN3CCN(C)CC3)cc2)cc1Nc1nccc(-c2cccnc2)n1 [imatinib] as the compound, how does the antiproliferative effect [2] read?
Answer: The antiproliferative effect was “no proliferation inhibition was observed”.

Question: Which IC50 (ACP-02 cells; Homo sapiens) does the source give for CC[C@@H]1/C=C(\C)C[C@H](C)C[C@H](OC)[C@H]2O[C@@](O)(C(=O)C(=O)N3CCCC[C@H]3C(=O)O[C@H](/C(C)=C/[C@@H]3CC[C@H](Cl)[C@H](OC)C3)[C@H](C)[C@@H](O)CC1=O)[C@H](C)C[C@@H]2OC [Pimecrolimus] here?
Answer: The IC50 was greater than 20 µM.

Question: And the IC50 (ACP-03 cells; Homo sapiens)?
Answer: The IC50 was greater than 20 µM.

Question: What about the IC50 (AGP-01 cells [1]) of the same compound?
Answer: The IC50 was greater than 20 µM.

Question: For “ramucirumab: VEGFR2 inhibitor approved as second line treatment of GC”, which “median OS” value (GC patients; second line, alone or with paclitaxel, local relapsed or metastatic GC) is on record?
Answer: Its value is “improvement on median OS”.

Question: With CN1CCN(CCOc2cc(OC3CCOCC3)c3c(Nc4c(Cl)ccc5c4OCO5)ncnc3c2)CC1 [Saracatinib] as the compound, how does the IC50 (ACP-02 cells; Homo sapiens) read?
Answer: The IC50 was 5.94 µM.

Question: What about the IC50 (ACP-03 cells; Homo sapiens) of the same compound?
Answer: The IC50 was 2.8 µM.

Question: What about the IC50 (AGP-01 cells [1]) of the same compound?
Answer: Its IC50 is 2.38 µM.

Question: With CCN(CC)CCNC(=O)c1c(C)[nH]c(/C=C2\C(=O)Nc3ccc(F)cc32)c1C [Sunitinib] as the compound, how does the IC50 (ACP-03 cells; Homo sapiens) read?
Answer: Its IC50 is 1.97 µM.

Question: What about the IC50 (AGP-01 cells [1]) of the same compound?
Answer: The IC50 was 1.53 µM.

Question: And the “beneficial effects in clinical trials” value (GC patients)?
Answer: The value was “failed to show beneficial effects”.

Question: For COc1cc2nccc(Oc3ccc(NC(=O)Nc4cc(C)on4)c(Cl)c3)c2cc1OC [Tivozanib], which IC50 (ACP-02 cells; Homo sapiens) is on record?
Answer: Its IC50 is greater than 20 µM.

Question: And the IC50 (ACP-03 cells; Homo sapiens)?
Answer: Its IC50 is greater than 20 µM.

Question: And the IC50 (AGP-01 cells [1])?
Answer: The IC50 was greater than 20 µM.

Question: Which results are given for C=CCN(/C=C1/C(=O)O[C@H](COC)[C@@]2(C)C1=C(O)C(=O)C1=C2[C@H](OC(C)=O)C[C@]2(C)C(=O)CC[C@@H]12)CC=C [PX-866]?
Answer: IC50 (ACP-02 cells): > 20 µM; IC50 (ACP-03 cells): > 20 µM; IC50 (AGP-01 cells [1]): > 20 µM

Question: For COc1cc2c(Nc3ccc(Br)cc3F)ncnc2cc1OCC1CCN(C)CC1 [Vandetanib], which IC50 (ACP-02 cells; Homo sapiens) is on record?
Answer: Its IC50 is greater than 20 µM.

Question: What about the IC50 (ACP-03 cells; Homo sapiens) of the same compound?
Answer: The IC50 was greater than 20 µM.

Question: And the IC50 (AGP-01 cells [1])?
Answer: Its IC50 is greater than 20 µM.

Question: For N#CC[C@H](C1CCCC1)n1cc(-c2ncnc3[nH]ccc23)cn1 [Ruxolitinib], which IC50 (ACP-02 cells; Homo sapiens) is on record?
Answer: The IC50 was greater than 20 µM.

Question: And the IC50 (ACP-03 cells; Homo sapiens)?
Answer: Its IC50 is greater than 20 µM.

Question: And the IC50 (AGP-01 cells [1])?
Answer: Its IC50 is greater than 20 µM.

Question: What does the source list for Cc1nc(Nc2ncc(C(=O)Nc3c(C)cccc3Cl)s2)cc(N2CCN(CCO)CC2)n1 [Dasatinib]?
Answer: IC50 ([2]; 72 h incubation): 1 µM; number of targets identified (kinase targets): 72; IC50 (ACP-02 cells; Homo sapiens): 1.02 µM; number of additional kinases identified as targets (kinases): ~40; cortical actin in the membrane region (AGP-01 cells [3]; confocal imaging, 100 nM, 500 nM, 1 μM, 24 h): significant increase; area of cortical actin (AGP-01 cells [3]; single cells, p-value < 0.01): significantly higher; intensity of cortical actin (AGP-01 cells [3]; single cells, p-value < 0.01): significantly higher; IC50 (AGP-01 cells [1]): 0.35 µM; morphology of the cells (AGP-01 cells [4]): morphological changes; peritoneal metastasis of GC [5]: suppressing peritoneal metastasis of GC; cell invasion (AGP-01 cells [6]): significantly inhibited; also recorded: Inhibition of cell invasion and migration

Question: What does the source list for CCCS(=O)(=O)Nc1ccc(F)c(C(=O)c2c[nH]c3ncc(-c4ccc(Cl)cc4)cc23)c1F [Vemurafenib]?
Answer: IC50 (ACP-02 cells; Homo sapiens): > 20 µM; IC50 (ACP-03 cells; Homo sapiens): > 20 µM; IC50 (AGP-01 cells [1]): > 20 µM

— PMC7007292 (Oncotarget, 2020)
